Data on two compounds can be found in patent US20190255056A1, “A HCK INHIBITOR AND A BCL-2 INHIBITOR FOR TREATING ACUTE MYELOID LEUKEMIA” (RIKEN, priority 2016, published 2019).

The test system of assay [1] is human FLT3−ITD+AML cells. Put plainly: In vivo treatment of AML-engrafted NSG recipients (PDX model). Further details: species or system NSG mice. The method, then:
NSG newborns received 1.5Gy total body irradiation followed by intravenous injection of purified human cells. Donor cells were purified according to their cell surface phenotype using monoclonal antibodies against human CD34, CD38, CD90, CD45RA, CD3, CD19 and CD33. Engraftment levels of human cells in the NSG recipients were assessed by retro-orbital phlebotomy and flow cytometry.
(§1) In vivo treatment experiments were performed with AML-engrafted NSG recipients using RK-20449 (Ref. STM 2013) and ABT-199 (Souers A J et al., Nature Medicine 2013, Pan R et al., Cancer Discovery 2014). The recipients were administered RK-20449 intraperitoneally 30 mg/kg twice a day, ABT-199 orally 70 mg/kg once a day or both RK-20449 and ABT-199 at these dosing schedules. The mice were sacrificed when they became moribund or after 4˜6 weeks of treatment, and human AML chimerisms in BM, spleen and PB were determined using flow cytometry. In secondary transplantation, each mouse received 7-AAD(-) viable human CD45+cells from 2.5% of total BM that remained in AML-engrafted recipients at the time of sacrifice, to simulate relapse occurring from residual viable AML cells.
These studies examined whether inhibition of a mutated kinase alone eliminates AML in vivo using a NSG PDX model. Patient-derived cells with a FLT3−ITD mutation engraft in vivo and initiate AML, but the individual FLT3−ITD+cells harbor multiple other mutations in various combinations. These mutations may contribute to therapy responsiveness in cooperation with FLT3−ITD, and a PDX model that reflects mutational complexity of human AML cells is necessary to examine the contribution of multiple co-existing mutations. Therefore, the frequency of AML-associated somatic mutations was evaluated in the disclosed PDX model using newborn NSG xenotransplantation, and the same sets of mutations were present in patient-derived leukemia-initiating population and engrafted AML cells in recipients (see, FIG. 4). […] The extent that targeting FLT3 pathway alone can result in reduction of human AML cells harboring multiple mutations in vivo was examined as follows. RK-20449 is a pyrrolo-pyrimidine-derivative multi-kinase inhibitor of Src family kinase HCK and FLT3 that effectively target human AML cells. Therefore, RK-20449 was administered to 58 NSG mice engrafted with AML from 19 FLT3−ITD+AML patients and the results are shown in FIG. 8.

Assay [2] deals with residual viable human CD45+AML cells (leukemia-initiating capacity). The assay can be described thus: Secondary (serial) transplantation of residual human AML cells after in vivo treatment. Also on record: species or system NSG mice. Conditions: 2.5% of residual viable human CD45+ cells transplanted per secondary recipient; single-agent groups. The method, then: as §1
Leukemia-initiating capacity remaining after treatment was compared by isolating residual viable human CD45+AML cells from each treated mouse and transplanting a pre-determined fraction into secondary NSG recipients.

The structures appear in SMILES notation.

In the case of `CC1(C)CCC(CN2CCN(c3ccc(C(=O)NS(=O)(=O)c4ccc(NCC5CCOCC5)c([N+](=O)[O-])c4)c(Oc4cnc5[nH]ccc5c4)c3)CC2)=C(c2ccc(Cl)cc2)C1` [ABT-199, reference compound], the “response to ABT-199 alone” value in assay [1] (ABT-199 orally 70 mg/kg once a day, majority of cases) is reported as “limited responses”. For the same compound, the “AML initiation in secondary recipients from treated BM” value in assay [2] was “every secondary recipient”.

Regarding `CN1CCN([C@H]2CC[C@H](n3cc(-c4ccc(Oc5ccccc5)cc4)c4c(N)ncnc43)CC2)CC1` [RK-20449, 7-((1R,4R)-4-(4-methylpiperazin-l-yl)cyclohexyl)-5-(4-phenoxyphenyl)-7H-pyrrolo[2,3-d]pyrimidin-4-amine], the “residual BM human CD45+chimerism” value in assay [1] (RK-20449 alone 30 mg/kg i.p. twice a day, five patients with complete responses, every recipient treated) was under 5%. Besides, the “response in the spleen” value in assay [1] (RK-20449 alone, 11 additional cases) was “complete responses in the spleen in a majority of recipients tested”. Further, in assay [1] (all 19 cases tested), the “response of FLT3−ITD+human AML cells to single agent in vivo” value is listed as “significant responses”. Further, the “remaining AML cells in BM, spleen and PB” value in assay [1] (flow cytometry and immunohistochemistry, complete-responder patients, all recipients treated) was “less than 0.01%”. Besides, the “BCL-2 dependence for leukemia cell survival” value in assay [1] (in vivo kinase inhibition) is “enhanced”. Moreover, the “cases with residual AML cells in the BM of at least one treated mouse” value in assay [1] (single agent RK-20449) is on record as 14 of 19. The “AML initiation in secondary recipients from treated BM” value in assay [2] is reported as “every secondary recipient”.
